Values of other authors, collected in patent publication US5189064A, “Treatment of cocaine addiction” (Matrix Technologies, Inc., priority 1990, dated 1993).
Read-outs that look alike come from different tables or passages of the source. Blank lines part the entries; values can stand above or below the molecule they belong to. Square brackets hold non-standard residues; d marks the D form. Ends that are not written are not given here.

Columns and labels:
enkephalinase A = details: in vitro, calf brain enzyme
enkephalinase B = details: in vitro, calf brain enzyme
[Met]-enkephalin [1] = mice
[2] = tryptophan injected into the bloodstream
[3] = infusion, neurological patients with depression and insomnia
healthy men = details: tryptophan 50 mg/kg, tyrosine 100 mg/kg, eight healthy men
[Met]-enkephalin [4] = tested on: [Met]-enkephalin
enkephalinases = details: rat intestinal mucosa
carboxypeptidase A = molecular target: T1, carboxypeptidase A (Bos taurus, UniProt P00730)
T1 sequence (P00730 111-417 limits assumed): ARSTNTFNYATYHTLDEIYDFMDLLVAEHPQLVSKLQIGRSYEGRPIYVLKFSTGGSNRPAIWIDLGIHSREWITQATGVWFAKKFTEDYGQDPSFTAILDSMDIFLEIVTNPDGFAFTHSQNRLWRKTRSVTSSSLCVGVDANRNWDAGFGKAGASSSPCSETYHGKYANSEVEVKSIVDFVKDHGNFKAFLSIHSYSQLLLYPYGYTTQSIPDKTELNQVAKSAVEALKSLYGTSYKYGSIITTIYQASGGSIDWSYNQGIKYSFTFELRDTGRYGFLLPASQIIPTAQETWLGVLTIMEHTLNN

Molecule: [dF]-Tyr
- inhibitory activity against enkephalinase A (enkephalinase A): markedly enhances the inhibitory potency
- inhibitory activity against enkephalinase B (enkephalinase B): markedly enhances the inhibitory potency

Molecule: O=C(O)CCc1ccccc1 [hydrocinnamic acid]
- [Met]-enkephalin in the brain ([Met]-enkephalin [1]): increases of [Met]-enkephalin

- elevations in cortical tryptophan levels [3]: six
Molecule: N[C@@H](Cc1c[nH]c2ccccc12)C(=O)O [tryptophan, L-tryptophan]
- level of serotonin in the brain elevated [2]: two
- level of tryptophan in the brain elevated [2]: nine
- pain discriminability (healthy men): significantly reduced pain discriminibility

Molecule: N[C@@H](Cc1ccc(O)cc1)C(=O)O [tyrosine, L-tyrosine]
- pain discriminability (healthy men): not

- enkephalinase inhibited (enkephalinase; cortex): 60%
- enkephalinase inhibited (enkephalinase; hypothalamus): 80%
- enkephalinase inhibited (enkephalinase; spinal cord): 84%
- enkephalinase inhibited (enkephalinase; striatum): 78%
- endorphinase inhibited (endorphinase; cortex): 18%
- endorphinase inhibited (endorphinase; hypothalamus): 5%
- endorphinase inhibited (endorphinase; spinal cord): 40%
- endorphinase inhibited (endorphinase; striatum): 10%
- inhibitory activity against enkephalinase A (enkephalinase A): much less effective
- inhibitory activity against enkephalinase B (enkephalinase B): much less effective
- inhibition of carboxypeptidase A (carboxypeptidase A): inhibit carboxypeptidase A
Molecule: N[C@H](Cc1ccccc1)C(=O)O [D-phenylalanine]
- CNS [Met]-enkephalin level ([Met]-enkephalin [4]; six days later): remained high
- CNS increases of [Met]-enkephalin ([Met]-enkephalin [4]; within 90 minutes following DPA injection): tripled
- degradation of (D-Ala2-D-Leu5) enkephalin (DAPLE) and Tyr-D-Ala-Gly-Phe (TAAGP) (enkephalinases): significantly reduced degradation
